Test results reported in PubChem BioAssay (NCI).
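Exposure lasted 48 hours, with cells grown in 96-well plates and compounds tested at five concentrations. The concentration for 50% growth inhibition is given as GI50. TGI: total growth inhibition.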

What was measured:
Assay in all cases: DTP human tumour cell line panel, 48 h
KM12 colon = tested on: KM12 colon
HCC-2998 colon = tested on: HCC-2998 colon
UACC-62 melanoma = tested on: UACC-62 melanoma
HCT-116 colon = tested on: HCT-116 colon
NCI/ADR-RES ovarian = tested on: NCI/ADR-RES ovarian
ACHN renal = tested on: ACHN renal
IGROV1 ovarian = tested on: IGROV1 ovarian
OVCAR-3 ovarian = tested on: OVCAR-3 ovarian
HOP-62 NSCLC = tested on: HOP-62 NSCLC
SF-268 CNS = tested on: SF-268 CNS
UACC-257 melanoma = tested on: UACC-257 melanoma
A549 NSCLC = tested on: A549 NSCLC
A498 renal = tested on: A498 renal
T-47D breast = tested on: T-47D breast
HS 578T breast = tested on: HS 578T breast
SK-MEL-5 melanoma = tested on: SK-MEL-5 melanoma
UO-31 renal = tested on: UO-31 renal
SK-MEL-28 melanoma = tested on: SK-MEL-28 melanoma
SK-OV-3 ovarian = tested on: SK-OV-3 ovarian
TK-10 renal = tested on: TK-10 renal
MDA-MB-468 breast = tested on: MDA-MB-468 breast
CCRF-CEM leukemia = tested on: CCRF-CEM leukemia
SNB-75 CNS = tested on: SNB-75 CNS
SF-539 CNS = tested on: SF-539 CNS
MALME-3M melanoma = tested on: MALME-3M melanoma
K-562 leukemia = tested on: K-562 leukemia
NCI-H460 lung = tested on: NCI-H460 lung
COLO 205 colon = tested on: COLO 205 colon
RPMI-8226 leukemia = tested on: RPMI-8226 leukemia
NCI-H23 lung = tested on: NCI-H23 lung
SNB-19 CNS = tested on: SNB-19 CNS
MDA-MB-435 = tested on: MDA-MB-435
786-0 renal = tested on: 786-0 renal
OVCAR-4 ovarian = tested on: OVCAR-4 ovarian
SR leukemia = tested on: SR leukemia
U251 CNS = tested on: U251 CNS
MCF7 breast = tested on: MCF7 breast
SN12C renal = tested on: SN12C renal
EKVX NSCLC = tested on: EKVX NSCLC
HOP-92 NSCLC = tested on: HOP-92 NSCLC
DU-145 prostate = tested on: DU-145 prostate
SK-MEL-2 melanoma = tested on: SK-MEL-2 melanoma
OVCAR-5 ovarian = tested on: OVCAR-5 ovarian
SF-295 CNS = tested on: SF-295 CNS
HL-60(TB) leukemia = tested on: HL-60(TB) leukemia
MOLT-4 leukemia = tested on: MOLT-4 leukemia
HCT-15 colon = tested on: HCT-15 colon
NCI-H522 lung = tested on: NCI-H522 lung
OVCAR-8 ovarian = tested on: OVCAR-8 ovarian
BT-549 breast = tested on: BT-549 breast
M14 melanoma = tested on: M14 melanoma
SW-620 colon = tested on: SW-620 colon
RXF 393 renal = tested on: RXF 393 renal
LOX IMVI melanoma = tested on: LOX IMVI melanoma
PC-3 prostate = tested on: PC-3 prostate
MDA-MB-231 breast = tested on: MDA-MB-231 breast
CAKI-1 renal = tested on: CAKI-1 renal
HT29 colon = tested on: HT29 colon
NCI-H226 lung = tested on: NCI-H226 lung

## Cc1cc2c(cc1Cl)C(=O)/C(=C/c1ccccc1)O2
KM12 colon
  GI50: 31.3 µM
  TGI: > 100 µM
HCC-2998 colon
  GI50: 31.6 µM
  TGI: > 100 µM
UACC-62 melanoma
  GI50: 15.9 µM
  TGI: 49.9 µM
HCT-116 colon
  GI50: 15.4 µM
  TGI: 62.9 µM
NCI/ADR-RES ovarian
  GI50: 15.7 µM
  TGI: 38.6 µM
ACHN renal
  GI50: 15.1 µM
  TGI: 29 µM
IGROV1 ovarian
  GI50: 14 µM
  TGI: 30.9 µM
OVCAR-3 ovarian
  GI50: 25.5 µM
  TGI: 93.1 µM
HOP-62 NSCLC
  GI50: 22.8 µM
  TGI: 52.8 µM
SF-268 CNS
  GI50: 25.1 µM
  TGI: 89.2 µM
UACC-257 melanoma
  GI50: 23.4 µM
  TGI: > 100 µM
A549 NSCLC
  GI50: 16.6 µM
  TGI: 37.8 µM
A498 renal
  GI50: 49.3 µM
  TGI: > 100 µM
T-47D breast
  GI50: 13.6 µM
  TGI: 35.3 µM
HS 578T breast
  GI50: 29.2 µM
  TGI: > 100 µM
SK-MEL-5 melanoma
  GI50: 15.6 µM
  TGI: 30.9 µM
UO-31 renal
  GI50: 13.9 µM
  TGI: 26.8 µM
SK-MEL-28 melanoma
  GI50: 23.7 µM
  TGI: 76.3 µM
SK-OV-3 ovarian
  GI50: 62.3 µM
  TGI: > 100 µM
TK-10 renal
  GI50: 23.5 µM
  TGI: 40.6 µM
MDA-MB-468 breast
  GI50: 13.2 µM
  TGI: 40.5 µM
CCRF-CEM leukemia
  GI50: 18.7 µM
  TGI: 49.2 µM
SNB-75 CNS
  GI50: 9.27 µM
  TGI: 57.7 µM
SF-539 CNS
  GI50: 15.7 µM
  TGI: 29.1 µM
MALME-3M melanoma
  GI50: 17.4 µM
  TGI: 31.7 µM
K-562 leukemia
  GI50: 27.6 µM
  TGI: > 100 µM
NCI-H460 lung
  GI50: 16 µM
  TGI: 35.6 µM
COLO 205 colon
  GI50: 24.6 µM
  TGI: 51.9 µM
RPMI-8226 leukemia
  GI50: 22.4 µM
  TGI: > 100 µM
NCI-H23 lung
  GI50: 15.4 µM
  TGI: 44.8 µM
SNB-19 CNS
  GI50: 26.5 µM
  TGI: > 100 µM
MDA-MB-435
  GI50: 21.5 µM
  TGI: 59.6 µM
786-0 renal
  GI50: 20 µM
  TGI: 40.5 µM
OVCAR-4 ovarian
  GI50: 16.8 µM
  TGI: 61.3 µM
SR leukemia
  GI50: 20.9 µM
  TGI: 54.8 µM
U251 CNS
  GI50: 13.1 µM
  TGI: 28.7 µM
MCF7 breast
  GI50: 2.7 µM
  TGI: 57.4 µM
SN12C renal
  GI50: 13.9 µM
  TGI: 33.1 µM
EKVX NSCLC
  GI50: 16.5 µM
  TGI: 33.1 µM
HOP-92 NSCLC
  GI50: 17.7 µM
  TGI: 44.6 µM
DU-145 prostate
  GI50: 16.9 µM
  TGI: 33.7 µM
SK-MEL-2 melanoma
  GI50: 20.6 µM
  TGI: 72 µM
OVCAR-5 ovarian
  GI50: 23.2 µM
  TGI: > 100 µM
SF-295 CNS
  GI50: 26 µM
  TGI: > 100 µM
HL-60(TB) leukemia
  GI50: 22.3 µM
  TGI: 46.7 µM
MOLT-4 leukemia
  GI50: 17.9 µM
  TGI: 46 µM
HCT-15 colon
  GI50: 14.2 µM
  TGI: 85.4 µM
NCI-H522 lung
  GI50: 13 µM
  TGI: 30.7 µM
OVCAR-8 ovarian
  GI50: 16.5 µM
  TGI: 44.1 µM
BT-549 breast
  GI50: 16.7 µM
  TGI: 45.3 µM
M14 melanoma
  GI50: 26 µM
  TGI: > 100 µM
SW-620 colon
  GI50: 16.8 µM
  TGI: 48.3 µM
RXF 393 renal
  GI50: 15 µM
  TGI: 33.6 µM
LOX IMVI melanoma
  GI50: 1.9 µM
  TGI: 4.19 µM
PC-3 prostate
  GI50: 11.1 µM
  TGI: 70.6 µM
MDA-MB-231 breast
  GI50: 16.5 µM
  TGI: 39.4 µM
CAKI-1 renal
  GI50: 15.5 µM
  TGI: 31.1 µM
HT29 colon
  GI50: 29 µM
  TGI: > 100 µM
NCI-H226 lung
  GI50: 12.8 µM
  TGI: 31.5 µM

## Cn1cc(-c2cc(N)n3nc(-c4cn(C)c5ncccc45)cc3n2)c2cccnc21
KM12 colon
  GI50: 16.6 µM
  TGI: 32.3 µM
HCC-2998 colon
  GI50: 15.1 µM
  TGI: 28.3 µM
UACC-62 melanoma
  GI50: 29 µM
  TGI: > 100 µM
HCT-116 colon
  GI50: 16.8 µM
  TGI: 38.2 µM
NCI/ADR-RES ovarian
  GI50: 30.9 µM
  TGI: > 100 µM
ACHN renal
  GI50: 17.3 µM
  TGI: 33 µM
IGROV1 ovarian
  GI50: 17.8 µM
  TGI: 37.6 µM
OVCAR-3 ovarian
  GI50: 15.6 µM
  TGI: 30.9 µM
HOP-62 NSCLC
  GI50: 18 µM
  TGI: 36.4 µM
SF-268 CNS
  GI50: > 100 µM
  TGI: > 100 µM
UACC-257 melanoma
  GI50: 29.2 µM
  TGI: > 100 µM
A549 NSCLC
  GI50: 15.7 µM
  TGI: 42 µM
A498 renal
  GI50: > 100 µM
  TGI: > 100 µM
T-47D breast
  GI50: 42.7 µM
  TGI: > 100 µM
HS 578T breast
  GI50: 18.7 µM
  TGI: 73.4 µM
SK-MEL-5 melanoma
  GI50: 14.4 µM
  TGI: 28.2 µM
UO-31 renal
  GI50: 15.2 µM
  TGI: 32.1 µM
SK-MEL-28 melanoma
  GI50: 16.4 µM
  TGI: 31.6 µM
SK-OV-3 ovarian
  GI50: > 100 µM
  TGI: > 100 µM
TK-10 renal
  GI50: 14.3 µM
  TGI: 27.9 µM
MDA-MB-468 breast
  GI50: 13.7 µM
  TGI: 26.7 µM
CCRF-CEM leukemia
  GI50: 5.88 µM
  TGI: 94.5 µM
SNB-75 CNS
  GI50: 11.1 µM
  TGI: 30.6 µM
SF-539 CNS
  GI50: 16.4 µM
  TGI: 32.1 µM
MALME-3M melanoma
  GI50: 17.3 µM
  TGI: 36.4 µM
K-562 leukemia
  GI50: 6.6 µM
  TGI: 27 µM
NCI-H460 lung
  GI50: 15.9 µM
  TGI: 32.6 µM
COLO 205 colon
  GI50: 10.3 µM
  TGI: 23.9 µM
RPMI-8226 leukemia
  GI50: 12.9 µM
  TGI: 38.4 µM
NCI-H23 lung
  GI50: 17.4 µM
  TGI: 32 µM
SNB-19 CNS
  GI50: 18.6 µM
  TGI: 38.4 µM
MDA-MB-435
  GI50: 29.4 µM
  TGI: > 100 µM
786-0 renal
  GI50: 16.7 µM
  TGI: 32.2 µM
OVCAR-4 ovarian
  GI50: 17.2 µM
  TGI: 36.2 µM
U251 CNS
  GI50: 19.8 µM
  TGI: 46.4 µM
MCF7 breast
  GI50: 18.7 µM
  TGI: 41.6 µM
SN12C renal
  GI50: 15.2 µM
  TGI: 30.4 µM
EKVX NSCLC
  GI50: 15.2 µM
  TGI: 30.2 µM
HOP-92 NSCLC
  GI50: 11.1 µM
  TGI: 29.1 µM
DU-145 prostate
  GI50: 14.6 µM
  TGI: 28.5 µM
SK-MEL-2 melanoma
  GI50: > 100 µM
  TGI: > 100 µM
OVCAR-5 ovarian
  GI50: 15.1 µM
  TGI: 28.4 µM
SF-295 CNS
  GI50: 17.5 µM
  TGI: 38.8 µM
HL-60(TB) leukemia
  GI50: 14.8 µM
  TGI: 37 µM
MOLT-4 leukemia
  GI50: 17.7 µM
  TGI: 51.6 µM
HCT-15 colon
  GI50: 16.4 µM
  TGI: 31.2 µM
NCI-H522 lung
  GI50: 32.1 µM
  TGI: > 100 µM
OVCAR-8 ovarian
  GI50: 18.7 µM
  TGI: 46 µM
BT-549 breast
  GI50: 17.4 µM
  TGI: 39.1 µM
M14 melanoma
  GI50: 16 µM
  TGI: 30.9 µM
SW-620 colon
  GI50: 13.3 µM
  TGI: 29.7 µM
RXF 393 renal
  GI50: 5.11 µM
  TGI: 21.9 µM
LOX IMVI melanoma
  GI50: 18.2 µM
  TGI: 39.7 µM
PC-3 prostate
  GI50: 15.2 µM
  TGI: 34.9 µM
MDA-MB-231 breast
  GI50: 13.7 µM
  TGI: 26.5 µM
CAKI-1 renal
  GI50: 16.9 µM
  TGI: 35.6 µM
HT29 colon
  GI50: 14.9 µM
  TGI: 31.5 µM
NCI-H226 lung
  GI50: 17.8 µM
  TGI: 42.9 µM
